Reference: US7696231B2, “Oxindole hydrazide modulators of protein tyrosine phosphatases (PTPs)” (Laboratoires Serono SA, priority 2001, dated 2010)

Columns and labels:
[1] = system: db/db mice; assay: In vivo assay in db/db mice, fasted animals (postprandial glycemia); conditions: db/db mice fasted 20 hours, 100 mg/kg per os, blood glucose before and 4 hrs after drug administration
Procedure: (§1) The following assay aims at determining the anti-diabetic effect of the test compounds of formula (I), in vivo in db/db mice using either fasted (to determine the postprandial glycemia right after a predetermined diet), or fed animals, to determine glycemia after a predetermined period of treatment.
(§2) 2 groups of db/db mice, 6 animals each, were formed, in the first one mice were fasted during 20 hours, the second one comprises fed (ad libitum) mice.
Group 1: The fasted animals (6) were administered (per os) a dose of 100 mg/kg of the test compound according to formula (I).
After oral administration with compounds of formula (I), they had access to commercial food (ad libitum). Blood glucose (postprandial glycemia) was determined before and 4 hrs after drug administration.

[2] = system: db/db mice; assay: In vivo assay in db/db mice, fed animals (repeated oral administration); conditions: 5×50 mg/kg per os once daily during 5 days, blood glucose before and 16 hrs after the last drug administration
Procedure: as §1, §2
Group 2: The fed animals (6) were administered (per os) a dose of 5×50 mg/kg of the test compound according to formula (I).
Mice were orally treated once daily during 5 days with compounds of formula (I). Blood glucose was determined before drug administration and 16 hrs after the last drug administration.

[3] = molecular target: T1, PTP1B (Homo sapiens, UniProt P18031); assay: PTP Enzyme Assay (PTP1B); format: biochemical; conditions: catalytic core of human recombinant PTP, DiFMUP substrate at Km, 30 minutes at room temperature; read-out: inhibition (IC50) with regard to PTP1B
T1 construct: using the catalytic core of a human recombinant PTP, as an enzyme; made in house
T1 sequence (P18031 3-277 limits assumed): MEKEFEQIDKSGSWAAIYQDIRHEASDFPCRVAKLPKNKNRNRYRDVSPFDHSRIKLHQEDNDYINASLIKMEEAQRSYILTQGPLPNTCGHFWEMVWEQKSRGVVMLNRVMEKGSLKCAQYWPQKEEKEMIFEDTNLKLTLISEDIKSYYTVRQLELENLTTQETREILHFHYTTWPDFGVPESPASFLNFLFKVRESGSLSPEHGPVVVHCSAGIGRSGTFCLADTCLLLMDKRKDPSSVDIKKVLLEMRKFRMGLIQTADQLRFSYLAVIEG
Excerpt: (§3) The PTP Enzyme Assay aims at determining the extent of inhibition of the examined PTP (e.g. PTP1B, TC-PTP, PTP-β, DEP-1, LAR, SHP-1, SHP-2, GLEPP-1, PTP-κ, PTP-μ, VHR, hVH5) in the presence of a test compound. The inhibition is illustrated by IC50 values which denote the concentration necessary to achieve an inhibition of 50% of the given PTP.
(§4) The cloning and expression of the catalytic domain of PTPs (e.g. PTP1B, TC-PTP, PTP-β, DEP-1, LAR, SHP-1, SHP-2, GLEPP-1, PTP-κ, PTP-μ, VHR, hVH5) maybe performed as described in J. Biol. Chem. 2000, 275(13), pp 9792-9796.
(§5) Assays were performed in a 96 well plate format, using the catalytic core of a human recombinant PTP, as an enzyme and 6,8-DiFluoro-4-MethylUmbelliferyl Phosphate (DiFMUP, Molecular Probes, D-6567) as a substrate at the Km value which was predetermined for each enzyme. Compounds to be tested were dissolved in 100% DMSO at a concentration of 2 mM. […] The reaction ran for 30 minutes at room temperature before reading the fluorescence intensity on a Perkin-Elmer Victor 2 spectrofluorimeter (excitation at 355 nm, emission at 460 nm, for 0.1 s). The percentage of inhibition relative to the fluorescence observed in the presence of solvent (5% DMSO) alone was determined. The IC50 values for inhibition were determined in triplicates on at least 3 separate occasions.

[4] = molecular target: T2, GLEPP-1 (Homo sapiens, UniProt Q16827); assay: PTP Enzyme Assay (GLEPP-1); format: biochemical; conditions: catalytic core of human recombinant PTP, DiFMUP substrate at Km, 30 minutes at room temperature; read-out: inhibition (IC50) with regard to GLEPP-1
T2 construct: using the catalytic core of a human recombinant PTP, as an enzyme; made in house
T2 sequence (Q16827 938-1195 limits assumed): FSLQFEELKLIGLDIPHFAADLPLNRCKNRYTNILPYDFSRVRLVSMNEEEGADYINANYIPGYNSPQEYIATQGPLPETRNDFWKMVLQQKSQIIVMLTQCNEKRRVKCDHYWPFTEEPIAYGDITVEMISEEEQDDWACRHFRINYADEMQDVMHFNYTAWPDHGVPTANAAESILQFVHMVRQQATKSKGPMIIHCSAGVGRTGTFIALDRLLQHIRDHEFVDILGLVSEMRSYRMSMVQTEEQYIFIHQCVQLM
Excerpt: as §3, §4, §5

SMILES | reduction of blood glucose level induced by food intake (postprandial glycemia) [1] [%] | reduction of the blood glucose level [2] [%] | IC50 [3] [nM] | IC50 [4] [nM]
O=C1Nc2ccc(I)cc2C1=NNC(=O)c1ccc(NC(=O)c2ccccc2)cc1 [Example 50, N-(4-{[2-(5-Iodo-2-oxo-1,2-dihydro-3H-indol-3-ylidene)hydrazino]-carbonyl}phenyl)benzamide] | 30 |  |  | 
O=C1Nc2ccc(I)cc2C1=NNC(=O)c1cccc(Oc2ccccc2)c1 [Example 26, N′-(5-Iodo-2-oxo-1,2-dihydro-3H-indol-3-ylidene)-3-phenoxybenzohydrazide] |  | 17 |  | 
O=C(COc1ccc([N+](=O)[O-])cc1)NN=C1C(=O)Nc2ccc(I)cc21 [Example 18, N′-(5-Iodo-2-oxo-1,2 dihydro-3H-indol-3-ylidene)-2-(4-nitrophenoxy)acetohydrazide] | 34 |  |  | 
O=C(CCc1cccc(O)c1)Nc1ccc(C(=O)NN=C2C(=O)Nc3ccc(I)cc32)cc1 [Example 70, 3-(3-Hydroxyphenyl)-N-(4-{[2-(5-iodo-2-oxo-1,2-dihydro-3H-indol-3-ylidene)hydrazino]carbonyl}phenyl)propanamide] |  |  | 770 | 
COC(=O)c1ccc(OCC(=O)NN=C2C(=O)Nc3ccc(I)cc32)cc1 [Example 23, Methyl 4-{2-[2-(5-iodo-2-oxo-1,2-dihydro-3H-indol-3-ylidene)hydrazino]-2-oxoethoxy}benzoate] |  | 30 |  | 
O=C(CCc1ccccc1)Nc1ccc(C(=O)NN=C2C(=O)Nc3ccc(I)cc32)cc1 [Example 1, N-(4-{[2-(5-Iodo-2-oxo-1,2-dihydro-3H-indol-3-ylidene)hydrazino]carbonyl}phenyl)-3-phenylpropanamide] | 30 | 22 | 340 | ~496
